Assay results as given in ChEMBL document CHEMBL4145686, “Discovery of a Potent and Selective Steroidal Glucocorticoid Receptor Antagonist (ORIC-101)” (J Med Chem, 2018).
pEC50, pIC50: −log10 of the molar value.

Tests used:
[1] = molecular target: Cytochrome P450 3A4 (Homo sapiens, UniProt P08684); assay: Inhibition of CYP3A4 (unknown origin) using midazolam as substrate; format: ADME
[2] = Cmax in mouse at 5 mg/kg, po; format: ADME, organism-based; set-up: dose 5 mg/kg, route oral; conditions: in vivo
[3] = molecular target: T1, Glucocorticoid receptor (Homo sapiens, UniProt P04150); assay: Agonist activity at human GR expressed in CHO-K1 cells incubated for 20 hrs by luciferase reporter gene assay; format: cell-based
T1 sequence (P04150 whole entry): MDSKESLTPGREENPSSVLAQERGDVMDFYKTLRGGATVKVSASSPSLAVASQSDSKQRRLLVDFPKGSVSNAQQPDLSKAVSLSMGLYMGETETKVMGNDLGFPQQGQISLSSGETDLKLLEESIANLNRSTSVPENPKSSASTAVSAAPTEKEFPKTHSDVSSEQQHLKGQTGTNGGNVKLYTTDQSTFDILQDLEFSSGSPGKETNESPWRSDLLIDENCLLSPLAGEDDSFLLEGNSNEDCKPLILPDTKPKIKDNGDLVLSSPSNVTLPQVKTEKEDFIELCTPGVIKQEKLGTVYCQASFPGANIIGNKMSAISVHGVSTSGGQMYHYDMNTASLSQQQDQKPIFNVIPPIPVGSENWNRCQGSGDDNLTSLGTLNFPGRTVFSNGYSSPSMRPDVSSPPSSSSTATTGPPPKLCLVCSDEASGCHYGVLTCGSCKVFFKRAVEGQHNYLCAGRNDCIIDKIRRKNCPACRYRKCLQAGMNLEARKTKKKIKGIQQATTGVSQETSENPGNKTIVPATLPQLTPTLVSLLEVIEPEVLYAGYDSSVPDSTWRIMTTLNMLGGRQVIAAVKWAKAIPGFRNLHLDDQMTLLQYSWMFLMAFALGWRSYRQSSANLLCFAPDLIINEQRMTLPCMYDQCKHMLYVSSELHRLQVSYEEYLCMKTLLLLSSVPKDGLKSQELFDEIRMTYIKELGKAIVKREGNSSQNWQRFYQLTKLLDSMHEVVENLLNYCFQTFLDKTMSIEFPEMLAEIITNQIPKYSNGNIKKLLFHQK

[4] = Cmax in rat at 5 mg/kg, po; format: ADME, organism-based; set-up: dose 5 mg/kg, route oral; conditions: in vivo
[5] = molecular target: T2, androgen receptor (AR) (Homo sapiens, UniProt P10275); assay: Agonist activity at AR (unknown origin) expressed in human LNCaP cells incubated for 20 hrs by luciferase reporter gene assay relative to mifepristone; format: cell-based; conditions: human LNCaP cells expressing AR
T2 sequence (P10275 whole entry): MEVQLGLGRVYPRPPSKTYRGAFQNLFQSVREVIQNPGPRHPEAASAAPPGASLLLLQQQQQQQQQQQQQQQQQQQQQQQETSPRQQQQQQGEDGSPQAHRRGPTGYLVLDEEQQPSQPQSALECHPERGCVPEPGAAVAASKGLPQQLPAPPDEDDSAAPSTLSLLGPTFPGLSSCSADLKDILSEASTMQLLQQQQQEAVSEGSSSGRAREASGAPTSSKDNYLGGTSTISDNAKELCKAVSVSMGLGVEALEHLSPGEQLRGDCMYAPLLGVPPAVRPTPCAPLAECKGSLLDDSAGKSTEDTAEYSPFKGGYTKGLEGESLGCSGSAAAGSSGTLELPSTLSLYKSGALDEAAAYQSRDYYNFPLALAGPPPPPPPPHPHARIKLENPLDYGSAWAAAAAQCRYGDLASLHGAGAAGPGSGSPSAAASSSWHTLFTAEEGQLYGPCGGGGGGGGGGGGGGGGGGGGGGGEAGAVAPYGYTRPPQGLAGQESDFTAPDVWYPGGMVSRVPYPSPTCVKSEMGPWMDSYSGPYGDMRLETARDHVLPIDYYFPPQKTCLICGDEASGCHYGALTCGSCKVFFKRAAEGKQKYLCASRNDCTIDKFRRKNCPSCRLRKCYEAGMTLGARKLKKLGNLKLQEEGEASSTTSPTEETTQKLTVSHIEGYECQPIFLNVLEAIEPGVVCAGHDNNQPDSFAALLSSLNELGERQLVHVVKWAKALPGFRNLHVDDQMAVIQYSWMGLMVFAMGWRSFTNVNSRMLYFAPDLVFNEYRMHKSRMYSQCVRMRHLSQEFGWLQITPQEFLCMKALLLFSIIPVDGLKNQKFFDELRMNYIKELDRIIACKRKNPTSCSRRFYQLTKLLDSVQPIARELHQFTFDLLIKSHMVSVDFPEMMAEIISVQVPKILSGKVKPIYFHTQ

[6] = molecular target: T1, Glucocorticoid receptor; assay: Antagonist activity at human GR expressed in CHO-K1 cells assessed as reduction in dexamethasone-induced response incubated for 20 hrs by luciferase reporter gene assay; format: cell-based
[7] = molecular target: T1, Glucocorticoid receptor; assay: (§1) Antagonist activity at GR in human OVCAR5 assessed as reduction in dexamethasone-induced FKBP5 gene expression incubated for 24 hrs by RT-qPCR method
[8] = molecular target: T3, Glucocorticoid receptor (Homo sapiens) (UniProt P04150); assay: as §1
T3 sequence (whole entry): T1 sequence (P04150 whole entry)

[9] = molecular target: T4, Estrogen receptor (Homo sapiens, UniProt P03372); assay: Binding affinity to untagged human recombinant full length ERalpha expressed in insect cells up to 1 uM by Fluormone ES2 Green displacement based assay
T4 sequence (P03372 whole entry): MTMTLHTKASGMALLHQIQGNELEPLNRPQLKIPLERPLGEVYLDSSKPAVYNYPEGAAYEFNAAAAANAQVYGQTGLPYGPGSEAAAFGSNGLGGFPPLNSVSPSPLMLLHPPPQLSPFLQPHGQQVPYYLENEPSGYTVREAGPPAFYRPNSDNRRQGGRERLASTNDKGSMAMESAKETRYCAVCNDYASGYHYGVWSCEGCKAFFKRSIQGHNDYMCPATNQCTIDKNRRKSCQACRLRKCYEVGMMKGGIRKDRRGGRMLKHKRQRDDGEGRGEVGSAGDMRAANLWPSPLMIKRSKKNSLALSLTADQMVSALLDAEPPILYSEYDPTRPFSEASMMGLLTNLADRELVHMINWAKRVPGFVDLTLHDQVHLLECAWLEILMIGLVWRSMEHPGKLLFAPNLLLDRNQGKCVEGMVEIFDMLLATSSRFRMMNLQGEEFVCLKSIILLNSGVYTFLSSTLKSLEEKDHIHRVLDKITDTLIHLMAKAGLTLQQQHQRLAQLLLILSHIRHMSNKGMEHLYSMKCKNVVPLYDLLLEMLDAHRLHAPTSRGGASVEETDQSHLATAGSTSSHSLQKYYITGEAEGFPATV

[10] = molecular target: T5, Androgen receptor (Homo sapiens, UniProt P10275); assay: Agonist activity at AR in human MDA-MB-453 cells assessed as increase in CLDN8 gene expression at 111 to 333 nM incubated for 24 hrs by RT-qPCR method; format: cell-based; conditions: mda-mb-453, 24 h, 0.333 µM
T5 sequence (P10275 whole entry): T2 sequence (P10275 whole entry)

Sequence of Cytochrome P450 3A4 (P08684 whole entry): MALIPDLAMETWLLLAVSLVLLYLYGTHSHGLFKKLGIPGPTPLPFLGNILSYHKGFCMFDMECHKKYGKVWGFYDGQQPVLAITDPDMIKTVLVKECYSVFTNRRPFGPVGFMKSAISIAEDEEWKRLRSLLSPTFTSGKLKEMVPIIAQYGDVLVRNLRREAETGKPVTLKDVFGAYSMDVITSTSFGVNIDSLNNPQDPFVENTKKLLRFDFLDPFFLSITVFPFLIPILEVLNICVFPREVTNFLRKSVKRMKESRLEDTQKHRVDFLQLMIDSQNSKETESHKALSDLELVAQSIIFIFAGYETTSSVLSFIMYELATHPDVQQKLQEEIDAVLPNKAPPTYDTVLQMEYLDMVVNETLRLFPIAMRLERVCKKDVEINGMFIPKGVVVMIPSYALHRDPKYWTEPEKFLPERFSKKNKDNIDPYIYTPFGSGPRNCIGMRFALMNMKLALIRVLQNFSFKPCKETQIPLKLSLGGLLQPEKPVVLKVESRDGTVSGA

`CC(C)N(C)c1ccc([C@H]2C[C@@]3(C)[C@@H](CC[C@@]3(O)C#CC(C)(C)C)[C@@H]3CCC4=CC(=O)CC[C@@H]4[C@H]32)cc1` showed a pIC50 [1] of 5.80, a Cmax [2] of 274 ng/mL and a pEC50 [3] of less than 5.60. The Cmax [4] was 149 ng/mL, the Emax at 20 h [5] was 11% and the pIC50 [6] was 8.25. The pIC50 [7] was 7.76, the inhibition [8] was “Dose-dependent effect” and the Activity [9] was “Not Active”. For the same compound, the Activity [10] was “Not Active”.
